EP4562003B1, “NOVEL 7-SUBSTITUTED INDOLE SULFONAMIDE DERIVATIVES” (F. Hoffmann-La Roche AG, priority 2022, dated 2024)

Biological target: human GPR17 short isoform (Homo sapiens, UniProt Q13304)
Assay: GPR17 cAMP assay (TR-FRET cAMP quantification, antagonist mode)
Format: cell-based
Settings: CHO-K1 cells stably expressing human GPR17 short isoform; EC80 of agonist MDL29,951; forskolin 15µM; IBMX 0.5mM; 30 minutes at room temperature; read-out: hGPR17 cAMP IC50
Method: GPR17 cAMP Assay Protocol:
CHO-K1 cells stably expressing vector containing untagged human GPR17 short isoform (Roche) were cultured at 37°C / 5% CO2 in DMEM (Dulbecco's Modified Eagle Medium):F-12 (1:1) supplemented with 10% foetal bovine serum and 400 µg/ml Geneticin.
Changes in intracellular cyclic adenosine monophosphate (cAMP) levels were quantified using the Nano-TRF Detection Assay kit (Roche Diagnostics, Cat. No. 05214386001). This assay allows for direct cAMP quantification in a homogeneous solution. cAMP is detected based on time-resolved fluorescence energy transfer (TR-FRET) and competitive binding of ruthenylated cAMP and endogenous cAMP to an anti-cAMP monoclonal antibody labeled with AlexaFluor-700. The Ruthenium complex serves as the FRET donor and transfers energy to AlexaFluor-700. The FRET signal is inversely proportional to the cAMP concentration.
CHO-GPR17S cells were detached with Accutase and resuspended in assay buffer consisting of Hank's Balanced Salt Solution (HBSS), 10mM HEPES (4-(2-hydroxyethyl) piperazine-1-ethanesulfonic acid solution) and 0.1% bovine serum albumin (pH 7.4). The cells were seeded in black 384-well plates (Corning) at a density of 10'000 cells / 20µl assay buffer until the addition of compounds.
Test antagonist compounds were serially diluted in dimethyl sulfoxide (DMSO) and spotted in 384-well plates. The compounds were then diluted in HBSS buffer supplemented with an EC80 concentration of MDL29,951 (3-(2-Carboxy-4,6-dichloroindol-3-yl)propionic acid) (GPR17 agonist) plus 3-Isobutyl-1-methylxanthine (IBMX) (0.5mM final concentration) and added to the cells at room temperature. Forskolin (15µM final concentration) was added 5 minutes after the test compounds and the cells were incubated at room temperature for 30 minutes. The assay was stopped by adding cAMP detection mix (containing detergents for cell lysis) for 90 minutes at room temperature.
Cellular cAMP was measured using a Paradigm reader (Molecular Devices). The raw data was used to calculate the FRET signal based on the assay's P-factor as per cAMP kit instructions. The data was normalized to the maximal activity of a reference antagonist and dose response curves were fitted to the percent activity of the test compounds using a sigmoidal dose response model (Genedata Screener).
Results in the hGPR17 cAMP assay are provided for compounds of formula I in Table 1 Table 1: […]

Sequence of human GPR17 short isoform (Q13304 29-367): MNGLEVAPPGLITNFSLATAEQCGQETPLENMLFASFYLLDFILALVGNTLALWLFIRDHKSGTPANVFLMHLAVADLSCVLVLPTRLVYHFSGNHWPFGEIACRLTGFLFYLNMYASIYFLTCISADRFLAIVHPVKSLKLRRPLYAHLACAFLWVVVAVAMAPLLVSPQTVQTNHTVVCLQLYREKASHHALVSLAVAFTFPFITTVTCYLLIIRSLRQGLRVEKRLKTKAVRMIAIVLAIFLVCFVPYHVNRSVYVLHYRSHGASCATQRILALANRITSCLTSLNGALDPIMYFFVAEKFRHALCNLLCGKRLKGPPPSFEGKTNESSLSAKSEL

COc1nc(NS(=O)(=O)c2c[nH]c3c(-c4ncccn4)c(Cl)ccc23)nc(OC)c1OCC(F)F [Example 1, 6-chloro-N-[5-(2,2-difluoroethoxy)-4,6-dimethoxy-pyrimidin-2-yl]-7-(2-pyrimidyl)-1H-indole-3-sulfonamide]
IC50: 48 nM

COc1nc(NS(=O)(=O)c2c[nH]c3c(-c4ncco4)c(Cl)ccc23)nc(OC)c1OCC(F)F [Example 2, 6-chloro-N-[5-(2,2-difluoroethoxy)-4,6-dimethoxy-pyrimidin-2-yl]-7-oxazol-2-yl-1H-indole-3-sulfonamide]
IC50: 98 nM

COc1nc(NS(=O)(=O)c2c[nH]c3c(-c4ncccn4)c(Cl)ccc23)nc(OC)c1CC(F)F [Example 3, 6-chloro-N-[5-(2,2-difluoroethyl)-4,6-dimethoxy-pyrimidin-2-yl]-7-(2-pyrimidyl)-1H-indole-3-sulfonamide]
IC50: 46 nM

COc1nc(NS(=O)(=O)c2c[nH]c3c(-c4cccnn4)c(Cl)ccc23)nc(OC)c1OCC(F)F [Example 4, 6-chloro-N-[5-(2,2-difluoroethoxy)-4,6-dimethoxy-pyrimidin-2-yl]-7-pyridazin-3-yl-1H-indole-3-sulfonamide]
IC50: 44 nM

COc1nc(NS(=O)(=O)c2c[nH]c3c(-c4nccn4C)cccc23)nc(OC)c1CC(F)F [Example 5, N-[5-(2,2-difluoroethyl)-4,6-dimethoxy-pyrimidin-2-yl]-7-(1-methylimidazol-2-yl)-1H-indole-3-sulfonamide]
IC50: 26 nM

COc1nc(NS(=O)(=O)c2c[nH]c3c(-c4cccnn4)c(Cl)ccc23)nc(OC)c1CC(F)F [Example 6, 6-chloro-N-[5-(2,2-difluoroethyl)-4,6-dimethoxy-pyrimidin-2-yl]-7-pyridazin-3-yl-1H-indole-3-sulfonamide]
IC50: 42 nM

COc1nc(NS(=O)(=O)c2c[nH]c3c(-c4nccn4C)cccc23)nc(OC)c1OCC(F)F [Example 7, N-[5-(2,2-difluoroethoxy)-4,6-dimethoxy-pyrimidin-2-yl]-7-(1-methylimidazol-2-yl)-1H-indole-3-sulfonamide]
IC50: 34 nM

COc1nc(NS(=O)(=O)c2c[nH]c3c(-c4nccn4C)c(Cl)ccc23)nc(OC)c1OCC(F)F [Example 8, 6-chloro-N-[5-(2,2-difluoroethoxy)-4,6-dimethoxy-pyrimidin-2-yl]-7-(1-methylimidazol-2-yl)-1H-indole-3-sulfonamide]
IC50: 39 nM

COc1nc(NS(=O)(=O)c2c[nH]c3c(-c4nccn4C)c(F)ccc23)nc(OC)c1OCC(F)F [Example 9, N-[5-(2,2-difluoroethoxy)-4,6-dimethoxy-pyrimidin-2-yl]-6-fluoro-7-(1-methylimidazol-2-yl)-1H-indole-3-sulfonamide]
IC50: 69 nM

COc1nc(NS(=O)(=O)c2c[nH]c3c(-c4nccn4C)c(F)ccc23)nc(OC)c1CC(F)F [Example 10, N-[5-(2,2-difluoroethyl)-4,6-dimethoxy-pyrimidin-2-yl]-6-fluoro-7-(1-methylimidazol-2-yl)-1H-indole-3-sulfonamide]
IC50: 30 nM

COc1nc(NS(=O)(=O)c2c[nH]c3c(-c4cccnn4)cccc23)nc(OC)c1CC(F)F [Example 11, N-[5-(2,2-difluoroethyl)-4,6-dimethoxy-pyrimidin-2-yl]-7-pyridazin-3-yl-1H-indole-3-sulfonamide]
IC50: 50 nM

COc1nc(NS(=O)(=O)c2c[nH]c3c(-c4cccnn4)cccc23)nc(OC)c1OCC(F)F [Example 12, N-[5-(2,2-difluoroethoxy)-4,6-dimethoxy-pyrimidin-2-yl]-7-pyridazin-3-yl-1H-indole-3-sulfonamide]
IC50: 85 nM

COc1nc(NS(=O)(=O)c2c[nH]c3c(-c4nnccc4C)cccc23)nc(OC)c1OCC(F)F [Example 13, N-[5-(2,2-difluoroethoxy)-4,6-dimethoxy-pyrimidin-2-yl]-7-(4-methylpyridazin-3-yl)-1H-indole-3-sulfonamide]
IC50: 57 nM

COc1nc(NS(=O)(=O)c2c[nH]c3c(-c4cocn4)c(Cl)ccc23)nc(OC)c1OCC(F)F [Example 14, 6-chloro-N-[5-(2,2-difluoroethoxy)-4,6-dimethoxy-pyrimidin-2-yl]-7-oxazol-4-yl-1H-indole-3-sulfonamide]
IC50: 32 nM

COc1nc(NS(=O)(=O)c2c[nH]c3c(-c4cnccn4)c(Cl)ccc23)nc(OC)c1CC(F)F [Example 15, 6-chloro-N-[5-(2,2-difluoroethyl)-4,6-dimethoxy-pyrimidin-2-yl]-7-pyrazin-2-yl-1H-indole-3-sulfonamide]
IC50: 27 nM

COc1nc(NS(=O)(=O)c2c[nH]c3c(-c4cnccn4)c(Cl)ccc23)nc(OC)c1OCC(F)F [Example 16, 6-chloro-N-[5-(2,2-difluoroethoxy)-4,6-dimethoxy-pyrimidin-2-yl]-7-pyrazin-2-yl-1H-indole-3-sulfonamide]
IC50: 25 nM

COc1nc(NS(=O)(=O)c2c[nH]c3c(-c4ncccn4)cccc23)nc(OC)c1CC(F)F [Example 17, N-[5-(2,2-difluoroethyl)-4,6-dimethoxy-pyrimidin-2-yl]-7-(2-pyrimidyl)-1H-indole-3-sulfonamide]
IC50: 806 nM

COc1nc(NS(=O)(=O)c2c[nH]c3c(-c4ccccn4)c(Cl)ccc23)nc(OC)c1CC(F)F [Example 18, 6-chloro-N-[5-(2,2-difluoroethyl)-4,6-dimethoxy-pyrimidin-2-yl]-7-(2-pyridyl)-1H-indole-3-sulfonamide]
IC50: 19 nM

COc1nc(NS(=O)(=O)c2c[nH]c3c(-c4ccccn4)c(Cl)ccc23)nc(OC)c1OCC(F)F [Example 19, 6-chloro-N-[5-(2,2-difluoroethoxy)-4,6-dimethoxy-pyrimidin-2-yl]-7-(2-pyridyl)-1H-indole-3-sulfonamide]
IC50: 18 nM

COc1nc(NS(=O)(=O)c2c[nH]c3c(-c4cnccn4)c(Cl)ccc23)nc(OC)c1OC(F)F [Example 20, 6-chloro-N-[5-(difluoromethoxy)-4,6-dimethoxy-pyrimidin-2-yl]-7-pyrazin-2-yl-1H-indole-3-sulfonamide]
IC50: 32 nM

COc1nc(NS(=O)(=O)c2c[nH]c3c(-c4cnccn4)c(Cl)ccc23)nc(OC)c1OCCF [Example 21, 6-chloro-N-[5-(2-fluoroethoxy)-4,6-dimethoxy-pyrimidin-2-yl]-7-pyrazin-2-yl-1H-indole-3-sulfonamide]
IC50: 40 nM

COc1nc(NS(=O)(=O)c2c[nH]c3c(-c4ncccn4)c(Cl)ccc23)nc(OC)c1OCCF [Example 22, 6-chloro-N-[5-(2-fluoroethoxy)-4,6-dimethoxy-pyrimidin-2-yl]-7-(2-pyrimidyl)-1H-indole-3-sulfonamide]
IC50: 80 nM

COc1nc(NS(=O)(=O)c2c[nH]c3c(-c4ncccn4)c(Cl)ccc23)nc(OC)c1OC(F)F [Example 23, 6-chloro-N-[5-(difluoromethoxy)-4,6-dimethoxy-pyrimidin-2-yl]-7-(2-pyrimidyl)-1H-indole-3-sulfonamide]
IC50: 50 nM

COc1nc(NS(=O)(=O)c2c[nH]c3c(-c4ncccn4)c(Cl)ccc23)nc(OC)c1C1CC1C#N (centres unmarked) [Example 24, 6-chloro-N-[5-(2-cyanocyclopropyl)-4,6-dimethoxy-pyrimidin-2-yl]-7-(2-pyrimidyl)-1H-indole-3-sulfonamide]
IC50: 61 nM

COc1nc(NS(=O)(=O)c2c[nH]c3c(-c4cnccn4)cccc23)nc(OC)c1CC(F)F [Example 25, N-[5-(2,2-difluoroethyl)-4,6-dimethoxy-pyrimidin-2-yl]-7-pyrazin-2-yl-1H-indole-3-sulfonamide]
IC50: 56 nM

COc1nc(NS(=O)(=O)c2c[nH]c3c(-c4ncccn4)c(F)ccc23)nc(OC)c1OCC(F)F [Example 26, N-[5-(2,2-difluoroethoxy)-4,6-dimethoxy-pyrimidin-2-yl]-6-fluoro-7-(2-pyrimidyl)-1H-indole-3-sulfonamide]
IC50: 218 nM

COc1nc(NS(=O)(=O)c2c[nH]c3c(-c4ncccn4)c(F)ccc23)nc(OC)c1CC(F)F [Example 27, N-[5-(2,2-difluoroethyl)-4,6-dimethoxy-pyrimidin-2-yl]-6-fluoro-7-(2-pyrimidyl)-1H-indole-3-sulfonamide]
IC50: 120 nM

COc1nc(NS(=O)(=O)c2c[nH]c3c(-c4ncccn4)c(F)ccc23)nc(OC)c1OCCF [Example 28, 6-fluoro-N-[5-(2-fluoroethoxy)-4,6-dimethoxy-pyrimidin-2-yl]-7-(2-pyrimidyl)-1H-indole-3-sulfonamide]
IC50: 307 nM

COc1nc(NS(=O)(=O)c2c[nH]c3c(-c4ncccn4)c(F)ccc23)nc(OC)c1OC(F)F [Example 29, N-[5-(difluoromethoxy)-4,6-dimethoxy-pyrimidin-2-yl]-6-fluoro-7-(2-pyrimidyl)-1H-indole-3-sulfonamide]
IC50: 604 nM
